Assay results as given in patent US8815799B2, “Inhibiting striated muscle activator of RHO (stars) to improve glycemic control” (Joslin Diabetes Center, Inc., priority 2010, dated 2014).
“Also recorded” adds a separate entry of the source.

What was measured:
C2C12 myotubes = assay: Deoxyglucose uptake in cultured myotubes (FIG. 11E); format: cell-based
Excerpt: (§1) Since CCG-1423 increased insulin signalling in myotubes, we hypothesized that CCG-1423 might also enhance glucose uptake. In DMSO (vehicle)-treated myotubes, insulin stimulated a 2-fold increase in deoxyglucose uptake in a dose-dependent manner, consistent with prior reports and the low insulin responsiveness in cultured myotubes (FIG. 11E). […] In parallel, expression of the dominant glucose transporters GLUT4 and GLUT1 was increased by CCG-1423 treatment by 4.1 and 2.5 fold, respectively (p<0.004).
(§2) To determine whether increased expression of STARS can modulate glucose uptake, basal and insulin-stimulated glucose uptake in are measured in L6 myotubes overexpressing STARS (day 6 of differentiation). In brief, following overnight serum starvation, myotubes are treated with insulin (0 to 100 nM) for 20 minutes and then incubated with transport solution (140 mM NaCl, 20 mM Hepes, 5 mM KCl, 2.5 mM MgSO4, 1.0 mM CaCl2, 10 μM 2-deoxyglucose, 0.5 μCi/mL [^3H]-2-deoxyglucose) for 10 minutes. Cells are lysed in 0.05N NaOH and radioactivity determined by scintillation counting. All assays are performed in quadruplicate and corrected by uptake in cytochalasin-treated wells. Glucose transport assays are also performed in STARS-Myc-GLUT4 cells, given their higher insulin responsiveness.

Myc-GLUT4 L6 myotubes = assay: Glucose uptake in Myc-GLUT4 L6 myotubes; format: cell-based
Method: as §2
(§3) To address whether STARS and MKL1-dependent SRF transcriptional activity contribute to the pathophysiology of insulin resistance, experiments were performed to test whether modulation of STARS expression and/or SRF activation can improve key cellular phenotypes associated with insulin resistance, including insulin action and glucose uptake. L6 myotubes stably expressing Myc-GLUT4 were infected with an adenovirus containing a short hairpin targeting STARS, resulting in a 54% reduction in STARS protein expression; this was associated with a 3.7-fold increase in basal glucose uptake and a 3.6-fold increase in insulin-stimulated glucose uptake (FIG. 19A).
To test the effect of reduced STARS expression (shRNA) and reduced SRF pathway activation (chemical inhibitor CCG-1423) in cultured myotubes, knock-down assays were performed. shSTARS target sequences (Forward 5′-[…] […] A-3′ (SEQ ID NO:1); Reverse 5′-[…] […] […]-3′ (SEQ ID NO:2)), or scrambled control (IDT RNA design), were cloned into pAdTrack-CMV adenoviral vector, and Myc-GLUT4 L6 myotubes were infected with amplified adenovirus (8×10^7 pfu/well, 6-well plate) at 3 days after differentiation. […] Thus, experimental reductions in STARS expression are associated with an increase insulin signaling and basal glucose uptake in cultured myotubes.
Since genetic knockdown of STARS expression enhanced glucose transport, a key question is whether pharmacologic inhibition of SRF transcriptional activity would similarly modulate glucose transport. Studies with CCG-1423, an SRF transcriptional inhibitor identified by compound library screening, were performed. […] By comparison, insulin stimulated glucose uptake by 1.6-fold (p<0.01; FIG. 20).

STARS = STARS expression in C2C12 myotubes after actin disruption; format: cell-based; settings: disruption of actin
Excerpt: Additional pathway analysis using MAPPFinder confirmed that serum response factor (SRF)-dependent and actin-related cytoskeleton gene expression is increased in diabetes, and more importantly, also in insulin resistance. The top-ranking single gene differentially expressed in skeletal muscle in the fasting state is the Actin-binding Rho activating protein (ABRA), or STARS, increased by 2.5 fold in individuals with type 2 diabetes (p<0.01). This gene regulates intracellular actin dynamics and subcellular localization of MKL1/2, thus contributing to SRF-dependent gene transcription. Since disruption of actin by latrunculin B increases STARS expression in C2C12 cells by 50% in C2C12 myotubes (p<0.03, not shown), it was hypothesize that increased STARS expression in DM may reflect disruption of actin dynamics and also contribute to the pattern of increased SRF-related gene expression. Similar patterns of SRF-dependent expression are also observed in adipose tissue from insulin resistant subjects and in insulin resistant muscle.

[1] = CCG-1423 treatment of high-fat diet-fed mice (glucose tolerance, insulin, body weight); format: in vivo
Method: (§4) To examine the therapeutic potential of this SRF inhibitor in vivo, we assessed responses to CCG-1423 treatment in mice with diet-induced obesity. […] The HFD mice were administered CCG-1423 (0.15 mg/kg body weight intraperitoneally) for two weeks.
In parallel, the high insulin levels associated with insulin resistance were normalized by CCG-1423 treatment (FIG. 13C).
To test this hypothesis, mice are treated with CCG-1423 in 2 models of murine insulin resistance: (1) high-fat diet-fed C57BL/6J mice (60% of calories from fat), or (2) genetically obese ob/ob mice. For these studies, mice are injected with CCG-1423 0.15 mg/kg/day or vehicle (DMSO), intraperitoneally, for 2 weeks. Body weight and food intake are monitored daily.

GLUT1 = GLUT1 expression in myotubes; format: cell-based; settings: myotubes treated with CCG-1423
Excerpt: as §1, §3

Akt = Akt phosphorylation (phosphoimmunoblot) in C2C12 myotubes; format: cell-based; settings: for increase in insulin-stimulated Akt phosphorylation: C2C12 myotubes, overnight 1 μM CCG-1423
Method: The next experiments were performed to determine whether SRF transcriptional activity, rather than expression of SRF itself, is important for maintaining appropriate insulin sensitivity. A new compound, CCG-1423, is available for specifically inhibiting SRF transcriptional activity (Evelyn et al., Mol. Cancer Ther. 6:2249-2260 (2007)). […] CCG-1423 was then evaluated to test the possibility that reducing SRF transcriptional activity improves insulin sensitivity. Indeed, this is the case.
(§5) In parallel, CCG-1423 enhanced insulin action in C2C12 myotubes. Overnight treatment with 1 μM CCG-1423 increased insulin-stimulated Akt phosphorylation, both in the presence and absence of dexamethasone (41% for both, p=0.01 and p=0.007, respectively), while having no effect on p42/44 ERK phosphorylation (FIG. 11C).

L6 myotubes = assay: 2-deoxyglucose uptake in L6 myotubes (FIG. 11E legend); format: cell-based; settings: CCG-1423 1 μM, 16 hours
Method: FIG. 11E is a line graph showing that both basal and insulin-stimulated 2-deoxyglucose uptake are increased by >4-fold in L6 myotubes following CCG-1423, with enhanced insulin sensitivity (1 μM, 16 hours). * indicates p<0.05, **p<0.01,***p<0.001.
as §2

IRS-1 = IRS-1 tyrosine phosphorylation and association with p85 PI 3-kinase in myotubes; format: cell-based
Method: FIG. 11D is a phosphoimmunoblot showing that CCG-1423 increases basal and insulin-stimulated tyrosine phosphorylation of IRS-1 and its association with p85-PI 3-kinase, in both control and DEX-treated myotubes. * indicates p<0.05, **p<0.01, ***p<0.001.
as §5

[2] = system: SRF, ELK1, SRF targets (ZYX, PDLIM7); assay: Gene expression in skeletal muscle of HFD mice treated with CCG-1423; format: in vivo
Method: as §4

p42/44 ERK = p42/44 ERK phosphorylation in C2C12 myotubes; format: cell-based; settings: overnight 1 μM CCG-1423 (FIG. 11C)
Method: as §5

[3] = system: SRF transcriptional activity; assay: SRF transcriptional activity, 4x CArG (SRE) promoter luciferase reporter in C2C12 cells; format: cell-based; settings: activity induced by serum, dexamethasone or insulin, CCG-1423 1 μM, 16 hours pre-treatment (FIG. 10, 11B)
Method: FIG. 11B is a bar graph showing the effect of CCG on SRF transcriptional activity. 4× CArG promoter is activated in response to serum stimulation (FBS 2 hours, control) and following overnight treatment with 100 μM dexamethasone (DEX) in C2C12 myoblasts. This SRF-mediated transcriptional activity was blocked by pre-treatment with CCG-1423 (1 μM, 16 hours).
To determine whether SRF transcriptional activity is also changed in insulin resistance, 4× tandem repeat of SRF binding element (SRE) CArG boxes (Kuwahara et al., Mol. Cell Biol. 25:3173-3181 (2005)) promoters linked to a luciferase gene were used as a reporter. […] These increases in SRF transcriptional activity in insulin resistant states could cause up-regulation of SRF target gene expression.

MKL1 = MKL1 cellular localization in C2C12 myoblasts; format: cell-based
Method: Since MKL1 is known to shuttle between the cytosol and nucleus to modulate target gene expression (Vartiainen et al., Science. 316:1749-1752 (2007)), the possibility arises that MKL1 localization may differ in insulin resistant state as compared to the normal state. […] In the basal state, MKL1 predominantly localized to cytosol and partially in nucleus. After 30 minutes of serum stimulation, MKL1 translocated to the […]. […] To determine whether MKL1 and G actin complex formation is changed in insulin resistance, the nuclear and cytosolic fractions from C2C12 myotubes were co-immunoprecipitated with MKL1 and blotted with beta actin.
To determine if the effects of CCG-1423 on SRF activity were mediated via MKL1 localization, MKL1 localization was assessed in C2C12 myoblasts treated with CCG-1423.

human myotubes = assay: Basal glucose uptake in human myotubes from control and diabetic subjects; format: cell-based
Method: The effects of CCG-1423 on human myotubes, and whether these effects would differ in myotubes derived from controls (n=2) vs. diabetic subjects (n=6), were also evaluated. […] The differential responsiveness in subjects with DM supports the concept that SRF pathways are more robustly activated in humans with insulin resistance and DM, and therefore potentially more sensitive to SRF inhibition.

GLUT4 = GLUT4 expression in myotubes; format: cell-based; settings: myotubes treated with CCG-1423
Excerpt: as §1, §3

[4] = HFD mice, CCG-1423 0.15 mg/kg intraperitoneally, two weeks, vs vehicle-treated HFD mice, 0.15 mg/kg
[5] = control and DEX-treated myotubes (FIG. 11D)
[6] = CCG-1423 0.15 mg/kg intraperitoneally, two weeks

insulin
insulin-stimulated increase in deoxyglucose uptake (C2C12 myotubes; DMSO (vehicle)-treated myotubes, dose-dependent): 2 fold
insulin-stimulated glucose uptake (Myc-GLUT4 L6 myotubes; Myc-GLUT4 L6 myotubes, insulin alone (FIG. 20)): 1.6 fold

C/C1=C/C(=O)O[C@@H]2C[C@@H](CC[C@H](C)/C=C\CC1)O[C@@](O)([C@@H]1CSC(=O)N1)C2 [latrunculin B]
increase in STARS expression (STARS): 50%

CC(ONC(=O)c1cc(C(F)(F)F)cc(C(F)(F)F)c1)C(=O)Nc1ccc(Cl)cc1 (stereo not shown) [CCG-1423]
serum insulin levels during glucose tolerance test ([1]; HFD mice, 15 minutes after glucose injection, vs vehicle-treated HFD animals): normalized; also recorded: significantly reduced
body weight [1, 4]: No significant change; also recorded: no differences; also recorded: not altered
food intake [1, 4]: No significant change; also recorded: no differences
in vivo glucose tolerance (intraperitoneal glucose tolerance test) [1, 4]: significantly improved; also recorded: improves glucose tolerance; also recorded: improved in vivo glucose tolerance
adiponectin levels ([1]; HFD mice, CCG-1423 two weeks): No differences
circulating fatty acid levels ([1]; HFD mice, CCG-1423 two weeks): No differences
insulin tolerance testing ([1]; HFD mice, CCG-1423 two weeks): No differences
glucose tolerance test area under the curve (AUC) ([1]; HFD mice, CCG-1423 two weeks, vs vehicle-treated HFD animals): significantly reduced
reduction of fed insulin levels ([1]; HFD-fed mice, CCG-1423 0.15 mg/kg/day intraperitoneally, 2 weeks, vs HFD-fed mice): 50%
increase in GLUT1 expression (GLUT1): 2.5 fold
increase in insulin-stimulated Akt phosphorylation (Akt; absence of dexamethasone): 41%
increase in insulin-stimulated Akt phosphorylation (Akt; presence of dexamethasone): 41%
insulin-stimulated Akt phosphorylation (marker of insulin sensitivity) (Akt; myotubes, with or without dexamethasone, insulin 100 nM, 10 minutes (FIG. 11A, 11C)): increased insulin-simulated Akt phosphorylation; also recorded: improves insulin-stimulated Akt phosphorylation; also recorded: increases insulin-stimulated Akt phosphorylation
increase in basal and insulin-stimulated 2-deoxyglucose uptake (L6 myotubes): > 4 fold
association of IRS-1 with p85 regulatory subunit of PI 3-kinase (IRS-1; [5]): increases
basal and insulin-stimulated tyrosine phosphorylation of IRS-1 (IRS-1; [5]): increases
p85 expression (IRS-1; myotubes treated with CCG-1423): without altering
expression of ELK1 [2, 6]: did not alter
expression of SRF [2, 6]: did not alter
expression of SRF targets in skeletal muscle, e.g., ZYX and PDLIM7 ([2]; CCG-1423 two weeks, vs vehicle-injected controls): significantly decreased
increase in glucose uptake, basal state (C2C12 myotubes; myotubes incubated with CCG-1423 (FIG. 11E)): 4 fold
insulin-stimulated glucose uptake response (C2C12 myotubes; myotubes incubated with CCG-1423, 1 μM insulin (FIG. 11E)): 11.5 fold
p42/44 ERK phosphorylation (p42/44 ERK): no effect; also recorded: minimal change
inhibition of SRF transcriptional activity / SRE promoter activity [3]: specifically blocks SRF transcriptional activity; also recorded: reduced SRE promoter activity and efficiently blocked both serum- and dexamethasone-stimulated activation; also recorded: reduces SRE promoter activity; also recorded: inhibits SRF activity
basal and insulin-stimulated glucose uptake (figure legend) (Myc-GLUT4 L6 myotubes; Myc-GLUT4 L6 myotubes (FIG. 19A, FIG. 20)): increases basal and insulin-stimulated 2-deoxyglucose uptake
increase in basal glucose uptake (Myc-GLUT4 L6 myotubes; Myc-GLUT4 L6 myotubes, CCG-1423 1 μM, 16 hours): 1.9 fold
increase in glucose uptake, combination with insulin (Myc-GLUT4 L6 myotubes; Myc-GLUT4 L6 myotubes, combination of CCG-1423 and insulin): 2.6 fold
MKL1 cytosol/nuclear localization (MKL1): almost exclusively localized to the cytoplasm; also recorded: reversed dexamethasone-induced MKL1 nuclear localization to partial cytoplasmic localization; also recorded: inhibition of MKL1 nuclear localization; also recorded: reduced nuclear translocation of MKL1
basal increase in glucose uptake, mean (human myotubes; human myotubes from control subjects (n=2)): 1.2 fold
basal increase in glucose uptake, mean (human myotubes; human myotubes from diabetic subjects (n=6)): 3.2 fold
increase in GLUT4 expression (GLUT4): 4.1 fold
